pIC50: −log10 of the molar value.
What was measured:
[1] = tested on: T47D (PI3Kα-H1047R) cell line; assay: HTRF phospho-AKT(S473) cell assay in T47D cells; format: cell-based, human; conditions: Homo sapiens; HTRF phospho-AKT(S473), T47D (PI3Kα-H1047R) cells, 2 hours compound incubation
Summary of the method: (§1)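 T47D: RPMI + 10% FBS + 0.2 units/mL insulin, top 5 μM. SKBR3: McCoy's 5A + 10% FBS, top 10 μM, 70 ng/ml PDGF-BB last 15 min. Both: 12-pt 1:3, 2 h, 37° C, max 0.5% DMSO; HTRF pAKT(S473); IC50.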

[2] = tested on: SKBR3 (PI3Kα-Wild Type) cell line; assay: HTRF phospho-AKT(S473) cell assay in SKBR3 cells; format: cell-based, human; conditions: Homo sapiens, SK-BR-3; HTRF phospho-AKT(S473), SKBR3 (PI3Kα-Wild Type) cells, 2 hours compound incubation, PDGF-BB stimulated
Summary of the method: as §1

SMILES	pIC50 [1]	pIC50 [2]
CCn1ncc(F)c1C1CCN(c2nc3c([C@@H](C)Nc4ccc(Cl)nc4C(=O)NS(C)(=O)=O)cc(C)cc3c(=O)n2C)CC1 [Compound 467, (R)-6-chloro-3-((1-(2-(4-(1-ethyl-4-fluoro-1H-pyrazol-5-yl)piperidin-1-yl)-3,6-dimethyl-4-oxo-3,4-dihydroquinazolin-8-yl)ethyl)amino)-N-(methylsulfonyl) picolinamide]	> 6.60	≤ 5.30
Cc1cc([C@@H](C)Nc2ccc(Cl)nc2C(=O)NS(C)(=O)=O)c2nc(N3CCC(c4nccc(C)n4)CC3)n(C)c(=O)c2c1 [Compound 468, (R)-6-chloro-3-((1-(3,6-dimethyl-2-(4-(4-methylpyrimidin-2-yl)piperidin-1-yl)-4-oxo-3,4-dihydroquinazolin-8-yl)ethyl)amino)-N-(methylsulfonyl) picolinamide]	> 6.60	≤ 5.30
Cc1cc([C@@H](C)Nc2ccc(Cl)nc2C(=O)NS(C)(=O)=O)c2nc(N3CCC(c4ncn(CC(F)(F)F)n4)CC3)n(C)c(=O)c2c1 [Compound 469, (R)-6-chloro-3-((1-(3,6-dimethyl-4-oxo-2-(4-(1-(2,2,2-trifluoroethyl)-1H-1,2,4-triazol-3-yl)piperidin-1-yl)-3,4-dihydroquinazolin-8-yl)ethyl)amino)-N-(methylsulfonyl) picolinamide]	6.30 to 6.60	≤ 5.30
Cc1cc([C@@H](C)Nc2ccc(Cl)nc2C(=O)NS(C)(=O)=O)c2nc(N3C[C@@H]4[C@H](C3)[C@H]4c3ccn(C(F)F)n3)n(C)c(=O)c2c1 [Compound 470, 6-chloro-3-(((R)-1-(2-((1R,5S,6R)-6-(1-(difluoromethyl)-1H-pyrazol-3-yl)-3-azabicyclo[3.1.0]hexan-3-yl)-3,6-dimethyl-4-oxo-3,4-dihydroquinazolin-8-yl)ethyl)amino)-N-(methylsulfonyl) picolinamide]	> 6.60	5.30 to 6.00
Cc1cc([C@@H](C)Nc2ccc(Cl)nc2C(=O)NS(C)(=O)=O)c2nc(N3C[C@@H]4[C@H](C3)[C@H]4c3ccnn3C(F)F)n(C)c(=O)c2c1 [Compound 471, 6-chloro-3-(((R)-1-(2-((1R,5S,6R)-6-(1-(difluoromethyl)-1H-pyrazol-5-yl)-3-azabicyclo[3.1.0]hexan-3-yl)-3,6-dimethyl-4-oxo-3,4-dihydroquinazolin-8-yl)ethyl)amino)-N-(methylsulfonyl) picolinamide]	> 6.60	5.30 to 6.00
COCCn1ncc(F)c1C1CCN(c2nc3c([C@@H](C)Nc4ccc(Cl)nc4C(=O)NS(C)(=O)=O)cc(C)cc3c(=O)n2C)CC1 [Compound 472, (R)-6-chloro-3-((1-(2-(4-(4-fluoro-1-(2-methoxyethyl)-1H-pyrazol-5-yl)piperidin-1-yl)-3,6-dimethyl-4-oxo-3,4-dihydroquinazolin-8-yl)ethyl)amino)-N-(methylsulfonyl) picolinamide]	> 6.60	≤ 5.30
Cc1cc([C@@H](C)Nc2ccc(Cl)nc2C(=O)NS(C)(=O)=O)c2nc(N3C[C@@H]4[C@H](C3)[C@H]4c3cc4ccccn4n3)n(C)c(=O)c2c1 [Compound 473]	6.30 to 6.60	≤ 5.30
COc1cc([C@H]2[C@@H]3CN(c4nc5c([C@@H](C)Nc6ccc(Cl)nc6C(=O)NS(C)(=O)=O)cc(C)cc5c(=O)n4C)C[C@@H]32)ccn1 [Compound 474, 6-chloro-3-(((R)-1-(2-((1R,5S,6S)-6-(2-methoxypyridin-4-yl)-3-azabicyclo[3.1.0]hexan-3-yl)-3,6-dimethyl-4-oxo-3,4-dihydroquinazolin-8-yl)ethyl)amino)-N-(methylsulfonyl) picolinamide]	6.30 to 6.60	≤ 5.30
Cc1cc([C@@H](C)Nc2ccc(Cl)nc2C(=O)NS(C)(=O)=O)c2nc(N3C[C@@H]4[C@H](C3)[C@H]4c3ccn(C4CC4)n3)n(C)c(=O)c2c1 [Compound 475, 6-chloro-3-(((R)-1-(2-((1R,5S,6R)-6-(1-cyclopropyl-1H-pyrazol-3-yl)-3-azabicyclo[3.1.0]hexan-3-yl)-3,6-dimethyl-4-oxo-3,4-dihydroquinazolin-8-yl)ethyl)amino)-N-(methylsulfonyl) picolinamide]	6.30 to 6.60	5.30 to 6.00
Cc1cc([C@@H](C)Nc2ccc(Cl)nc2C(=O)NS(C)(=O)=O)c2nc(N3C[C@@H]4[C@H](C3)[C@H]4c3csc(C)n3)n(C)c(=O)c2c1 [Compound 476, 6-chloro-3-(((R)-1-(3,6-dimethyl-2-((1R,5S,6R)-6-(2-methylthiazol-4-yl)-3-azabicyclo[3.1.0]hexan-3-yl)-4-oxo-3,4-dihydroquinazolin-8-yl)ethyl)amino)-N-(methylsulfonyl) picolinamide]	6.30 to 6.60	5.30 to 6.00
Cc1cc([C@@H](C)Nc2ccc(Cl)nc2C(=O)NS(C)(=O)=O)c2nc(N3C[C@@H]4[C@H](C3)[C@H]4c3cc4n(n3)CCC4)n(C)c(=O)c2c1 [Compound 477, 6-chloro-3-(((R)-1-(2-((1R,5S,6R)-6-(5,6-dihydro-4H-pyrrolo[1,2-b]pyrazol-2-yl)-3-azabicyclo[3.1.0]hexan-3-yl)-3,6-dimethyl-4-oxo-3,4-dihydroquinazolin-8-yl)ethyl)amino)-N-(methylsulfonyl) picolinamide]	> 6.60	5.30 to 6.00
Cc1cc([C@@H](C)Nc2ccc(Cl)nc2C(=O)NS(C)(=O)=O)c2nc(N3C[C@@H]4[C@H](C3)[C@H]4c3cn(CC(F)(F)F)nn3)n(C)c(=O)c2c1 [Compound 478, 6-chloro-3-(((R)-1-(3,6-dimethyl-4-oxo-2-((1R,5S,6R)-6-(1-(2,2,2-trifluoroethyl)-1H-1,2,3-triazol-4-yl)-3-azabicyclo[3.1.0]hexan-3-yl)-3,4-dihydroquinazolin-8-yl)ethyl)amino)-N-(methylsulfonyl) picolinamide]	> 6.60	5.30 to 6.00
COc1cc([C@H]2[C@@H]3CN(c4nc5c([C@@H](C)Nc6ccc(Cl)nc6C(=O)NS(C)(=O)=O)cc(C)cc5c(=O)n4C)C[C@@H]32)c(F)cn1 [Compound 479, 6-chloro-3-(((R)-1-(2-((1R,5S,6S)-6-(5-fluoro-2-methoxypyridin-4-yl)-3-azabicyclo[3.1.0]hexan-3-yl)-3,6-dimethyl-4-oxo-3,4-dihydroquinazolin-8-yl)ethyl)amino)-N-(methylsulfonyl) picolinamide]	6.30 to 6.60	≤ 5.30
Cc1cc([C@@H](C)Nc2ccc(Cl)nc2C(=O)NS(C)(=O)=O)c2nc(N3CCC(c4cn(C)nn4)CC3)n(C)c(=O)c2c1 [Compound 480, (R)-6-chloro-3-((1-(3,6-dimethyl-2-(4-(1-methyl-1H-1,2,3-triazol-4-yl)piperidin-1-yl)-4-oxo-3,4-dihydroquinazolin-8-yl)ethyl)amino)-N-(methylsulfonyl) picolinamide]	> 6.60	5.30 to 6.00
Cc1cc([C@@H](C)Nc2ccc(Cl)nc2C(=O)NS(C)(=O)=O)c2nc(N3[C@@H]4CC[C@H]3C[C@H](n3cc(C)cn3)C4)n(C)c(=O)c2c1 [Compound 481, 6-chloro-3-(((R)-1-(3,6-dimethyl-2-((1R,3S,5S)-3-(4-methyl-1H-pyrazol-1-yl)-8-azabicyclo[3.2.1]octan-8-yl)-4-oxo-3,4-dihydroquinazolin-8-yl)ethyl)amino)-N-(methylsulfonyl) picolinamide]	6.30 to 6.60	5.30 to 6.00
Cc1cc([C@@H](C)Nc2ccc(Cl)nc2C(=O)NS(C)(=O)=O)c2nc(N3[C@@H]4CC[C@H]3C[C@@H](n3cc(C)cn3)C4)n(C)c(=O)c2c1 [Compound 482, 6-chloro-3-(((R)-1-(3,6-dimethyl-2-((1R,3R,5S)-3-(4-methyl-1H-pyrazol-1-yl)-8-azabicyclo[3.2.1]octan-8-yl)-4-oxo-3,4-dihydroquinazolin-8-yl)ethyl)amino)-N-(methylsulfonyl) picolinamide]	> 6.60	5.30 to 6.00
COc1ncc([C@H]2[C@@H]3CN(c4nc5c([C@@H](C)Nc6ccc(Cl)nc6C(=O)NS(C)(=O)=O)cc(C)cc5c(=O)n4C)C[C@@H]32)cn1 [Compound 483, 6-chloro-3-(((R)-1-(2-((1R,5S,6S)-6-(2-methoxypyrimidin-5-yl)-3-azabicyclo[3.1.0]hexan-3-yl)-3,6-dimethyl-4-oxo-3,4-dihydroquinazolin-8-yl)ethyl)amino)-N-(methylsulfonyl) picolinamide]	> 6.60	5.30 to 6.00
Cc1cc([C@@H](C)Nc2ccc(Cl)nc2C(=O)NS(C)(=O)=O)c2nc(N3C[C@@H]4[C@H](C3)[C@H]4c3cnc(C(F)(F)F)nc3)n(C)c(=O)c2c1 [Compound 484, 6-chloro-3-(((R)-1-(3,6-dimethyl-4-oxo-2-((1R,5S,6S)-6-(2-(trifluoromethyl)pyrimidin-5-yl)-3-azabicyclo[3.1.0]hexan-3-yl)-3,4-dihydroquinazolin-8-yl)ethyl)amino)-N-(methylsulfonyl) picolinamide]	6.30 to 6.60	5.30 to 6.00
Cc1cc([C@@H](C)Nc2ccc(Cl)nc2C(=O)NS(C)(=O)=O)c2nc(N3C[C@@H]4[C@H](C3)[C@H]4c3cnc(C4CC4)nc3)n(C)c(=O)c2c1 [Compound 485, 6-chloro-3-(((R)-1-(2-((1R,5S,6S)-6-(2-cyclopropylpyrimidin-5-yl)-3-azabicyclo[3.1.0]hexan-3-yl)-3,6-dimethyl-4-oxo-3,4-dihydroquinazolin-8-yl)ethyl)amino)-N-(methylsulfonyl) picolinamide]	6.30 to 6.60	5.30 to 6.00
Cc1cc([C@@H](C)Nc2ccc(Cl)nc2C(=O)NS(C)(=O)=O)c2nc(N3CCC(c4ncc(F)cn4)CC3)n(C)c(=O)c2c1 [Compound 486, (R)-6-chloro-3-((1-(2-(4-(5-fluoropyrimidin-2-yl)piperidin-1-yl)-3,6-dimethyl-4-oxo-3,4-dihydroquinazolin-8-yl)ethyl)amino)-N-(methylsulfonyl) picolinamide]	> 6.60	5.30 to 6.00

Source: patent publication US12281122B1, “PI3K inhibitors” (Cogent Biosciences, Inc., priority 2023, dated 2025)
